From US6806230B1, “Pyrimidine derivatives and herbicides containing them” (Kumiai Chemical Industry Co., Ltd., priority 1999, dated 2004)

tested on: barnyard grass (Ec); assay: Test Example 2: herbicidal effects by upland soil treatment; format: in vivo; design: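 0-5 growth inhibition grade; 5 = over 90%; 4 = 70-90%; 3 = 50-70%; 2 = 30-50%; 1 = 10-30%; 0 = under 10%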; details: dose 100 g active ingredient per 10 ares, examined on the 21st day after treatment
Experimental: In a 80 cm^2 plastic pot, upland soil was filled, and seeds of barnyard grass (Ec) and green foxtail (Se) were sown and covered with soil. A wettable powder prepared in accordance with Formulation Example 1 was diluted with water and uniformly applied to the soil surface by means of a small size spray at a rate of 100 l per 10 ares, so that the dose of the active ingredient would be 100 g per 10 ares. Thereafter, cultivation was carried out in a green house, and on the 21st day after the treatment, the herbicidal effects were examined in accordance with the standards as identified in Table 44.

SMILES	Ec (herbicidal effects, index)
CC(C)C(c1cncnc1C(F)(F)F)N(C)C(=O)C(=O)c1ccc(Cl)cc1 (racemic) [1-335]	5
CC(C)C(c1cncnc1C=NO)N(C)C(=O)Cc1ccc(Cl)cc1 (racemic) [1-502]	4
CC(C)C(c1cncnc1-c1ccccc1)N(C)C(=O)Cc1ccc(F)cc1 (racemic) [1-323]	4
CCC(c1cncnc1C(C)C)N(C)C(=O)Cc1ccc(Cl)cc1 (racemic) [1-438]	5
CC(C)c1ncncc1C(C(C)C)N(C)C(=O)Cc1ccc(Cl)cc1F (racemic) [Compound 1-254]	5
CC(C)C(c1cncnc1C(F)(F)Cl)N(C)C(=O)Oc1ccc([N+](=O)[O-])cc1 (racemic) [1-640]	4
CN(C(=O)Cc1ccc(F)cc1F)C(c1cncnc1C(F)(F)F)C(C)(C)C (racemic) [Compound 1-273]	5
CC(C)C(c1cncnc1C(F)(F)Cl)N(C)C(=S)Oc1ccccc1 (racemic) [1-641]	5
CN(C(=O)Cc1cccc(F)c1)C(c1ccccc1)c1cncnc1C(F)(F)F (racemic) [Compound 1-266]	5
C#CCN(C(=O)C(C)c1ccccc1)C(c1cncnc1CC)C(C)C (mixture of isomers) [1-562]	5
CC(C)C(c1cncnc1C(F)(F)F)N(C)C(=O)N(C)C1CCCCC1 (racemic) [2-72]	5
CC(C)C(c1cncnc1C=O)N(C)C(=O)Cc1ccc(Cl)cc1 (racemic) [1-524]	5
CC(C)CC(c1cncnc1C(F)(F)F)N(C)C(=O)Cc1ccsc1 (racemic) [2-52]	5
CC(C)c1ncncc1C(C(C)C)N(C)C(=O)N(C)c1ccccc1 (racemic) [1-327]	5
CC(C)C(c1cncnc1C(F)(F)F)N(C)C(=O)N(C)c1ccsc1 (racemic) [2-63]	5
COc1ccc(N(C)C(=O)N(C)C(c2cncnc2C(F)(F)F)C(C)C)cc1 (racemic) [1-460]	5
CN(C(=O)Cc1cccc(F)c1)C(c1cncnc1C(F)(F)F)C(C)(C)C (racemic) [Compound 1-265]	5
CN(C(=O)Cc1ccc(C(F)(F)F)cc1)C(c1cncnc1C(F)(F)F)C(C)(C)C (racemic) [1-305]	5

tested on: monochoria (Mo); assay: Test Example 1: herbicidal effects by flooded paddy field treatment; format: in vivo; design: herbicidal effects, Mo (monochoria):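 0-5 growth inhibition grade; 5 = over 90%; 4 = 70-90%; 3 = 50-70%; 2 = 30-50%; 1 = 10-30%; 0 = under 10%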; details: dose 100 g active ingredient per 10 ares, examined on the 21st day after treatment, standards of Table 44
Experimental: (§1) In a 100 cm^2 plastic pot, paddy field soil was filled and paddled. Then, seeds of barnyard grass (Eo) and monochoria (Mo) were sown, and water was introduced to a depth of 3 cm. Next day, a wettable powder prepared in accordance with Formulation Example 1 was diluted with water and dropwise applied to the water surface. The dose was 100 g of the active ingredient per 10 ares. Thereafter, cultivation was carried out in a green house, and on the 21st day after the treatment, the herbicidal effects were examined in accordance with the standards as identified in Table 44.

SMILES	herbicidal effects, Mo (monochoria)
CC(C)C(c1cncnc1C(F)(F)F)N(C)C(=O)C(=O)c1ccc(Cl)cc1 (racemic) [1-335]	5
CC(C)C(c1cncnc1C=NO)N(C)C(=O)Cc1ccc(Cl)cc1 (racemic) [1-502]	5
CC(C)C(c1cncnc1-c1ccccc1)N(C)C(=O)Cc1ccc(F)cc1 (racemic) [1-323]	5
CCC(c1cncnc1C(C)C)N(C)C(=O)Cc1ccc(Cl)cc1 (racemic) [1-438]	5
CC(C)c1ncncc1C(C(C)C)N(C)C(=O)Cc1ccc(Cl)cc1F (racemic) [Compound 1-254]	5
CC(C)C(c1cncnc1C(F)(F)Cl)N(C)C(=O)Oc1ccc([N+](=O)[O-])cc1 (racemic) [1-640]	5
CN(C(=O)Cc1ccc(F)cc1F)C(c1cncnc1C(F)(F)F)C(C)(C)C (racemic) [Compound 1-273]	5
CC(C)C(c1cncnc1C(F)(F)Cl)N(C)C(=S)Oc1ccccc1 (racemic) [1-641]	5
CN(C(=O)Cc1cccc(F)c1)C(c1ccccc1)c1cncnc1C(F)(F)F (racemic) [Compound 1-266]	5
C#CCN(C(=O)C(C)c1ccccc1)C(c1cncnc1CC)C(C)C (mixture of isomers) [1-562]	5
CC(C)C(c1cncnc1C(F)(F)F)N(C)C(=O)N(C)C1CCCCC1 (racemic) [2-72]	5
CC(C)C(c1cncnc1C=O)N(C)C(=O)Cc1ccc(Cl)cc1 (racemic) [1-524]	5
CC(C)CC(c1cncnc1C(F)(F)F)N(C)C(=O)Cc1ccsc1 (racemic) [2-52]	5
CC(C)c1ncncc1C(C(C)C)N(C)C(=O)N(C)c1ccccc1 (racemic) [1-327]	5
CC(C)C(c1cncnc1C(F)(F)F)N(C)C(=O)N(C)c1ccsc1 (racemic) [2-63]	5
COc1ccc(N(C)C(=O)N(C)C(c2cncnc2C(F)(F)F)C(C)C)cc1 (racemic) [1-460]	5
CN(C(=O)Cc1cccc(F)c1)C(c1cncnc1C(F)(F)F)C(C)(C)C (racemic) [Compound 1-265]	5
CN(C(=O)Cc1ccc(C(F)(F)F)cc1)C(c1cncnc1C(F)(F)F)C(C)(C)C (racemic) [1-305]	5

tested on: barnyard grass (Eo); assay: as above; format: in vivo; design: herbicidal effects, Eo (barnyard grass):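 0-5 growth inhibition grade; 5 = over 90%; 4 = 70-90%; 3 = 50-70%; 2 = 30-50%; 1 = 10-30%; 0 = under 10%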; details: dose 100 g active ingredient per 10 ares, examined on the 21st day after treatment, standards of Table 44
Experimental: as §1

SMILES	herbicidal effects, Eo (barnyard grass)
CC(C)C(c1cncnc1C(F)(F)F)N(C)C(=O)C(=O)c1ccc(Cl)cc1 (racemic) [1-335]	5
CC(C)C(c1cncnc1C=NO)N(C)C(=O)Cc1ccc(Cl)cc1 (racemic) [1-502]	5
CC(C)C(c1cncnc1-c1ccccc1)N(C)C(=O)Cc1ccc(F)cc1 (racemic) [1-323]	5
CCC(c1cncnc1C(C)C)N(C)C(=O)Cc1ccc(Cl)cc1 (racemic) [1-438]	5
CC(C)c1ncncc1C(C(C)C)N(C)C(=O)Cc1ccc(Cl)cc1F (racemic) [Compound 1-254]	5
CC(C)C(c1cncnc1C(F)(F)Cl)N(C)C(=O)Oc1ccc([N+](=O)[O-])cc1 (racemic) [1-640]	5
CN(C(=O)Cc1ccc(F)cc1F)C(c1cncnc1C(F)(F)F)C(C)(C)C (racemic) [Compound 1-273]	5
CC(C)C(c1cncnc1C(F)(F)Cl)N(C)C(=S)Oc1ccccc1 (racemic) [1-641]	5
CN(C(=O)Cc1cccc(F)c1)C(c1ccccc1)c1cncnc1C(F)(F)F (racemic) [Compound 1-266]	5
C#CCN(C(=O)C(C)c1ccccc1)C(c1cncnc1CC)C(C)C (mixture of isomers) [1-562]	5
CC(C)C(c1cncnc1C(F)(F)F)N(C)C(=O)N(C)C1CCCCC1 (racemic) [2-72]	5
CC(C)C(c1cncnc1C=O)N(C)C(=O)Cc1ccc(Cl)cc1 (racemic) [1-524]	5
CC(C)CC(c1cncnc1C(F)(F)F)N(C)C(=O)Cc1ccsc1 (racemic) [2-52]	5
CC(C)c1ncncc1C(C(C)C)N(C)C(=O)N(C)c1ccccc1 (racemic) [1-327]	5
CC(C)C(c1cncnc1C(F)(F)F)N(C)C(=O)N(C)c1ccsc1 (racemic) [2-63]	5
COc1ccc(N(C)C(=O)N(C)C(c2cncnc2C(F)(F)F)C(C)C)cc1 (racemic) [1-460]	5
CN(C(=O)Cc1cccc(F)c1)C(c1cncnc1C(F)(F)F)C(C)(C)C (racemic) [Compound 1-265]	5
CN(C(=O)Cc1ccc(C(F)(F)F)cc1)C(c1cncnc1C(F)(F)F)C(C)(C)C (racemic) [1-305]	5
